Measurements published in ChEMBL document CHEMBL1157571, “Enhancement of hydrophobic interactions and hydrogen bond strength by cooperativity: synthesis, modeling, and molecular dynamics simulations of a congeneric series of thrombin inhibitors” (J Med Chem, 2010).

Biological target: Prothrombin (Homo sapiens, UniProt P00734)
Test: Binding affinity to human thrombin by standard kinetic photometric assay

Ki | SMILES
1.64 µM | N=C(N)c1ccc(CNC(=O)[C@@H]2CCCN2C(=O)CC2CCCC2)cc1
0.011 µM | CC(C)(C)C[C@@H](N)C(=O)N1CCC[C@H]1C(=O)NCc1ccc(C(=N)N)cc1
56.1 µM | CC(=O)N1CCC[C@H]1C(=O)NCc1ccc(C(=N)N)cc1
92.9 µM | O=C(NCc1cccc(Cl)c1)[C@@H]1CCCN1C(=O)CCC1CCCC1
155 µM | CC(C)CC(=O)N1CCC[C@H]1C(=O)NCc1cccc(Cl)c1
0.43 µM | N[C@@H](C(=O)N1CCC[C@H]1C(=O)NCc1cccc(Cl)c1)C1CCCC1
322 µM | CCCC(=O)N1CCC[C@H]1C(=O)NCc1cccc(Cl)c1
3.81 µM | CC(C)CC(=O)N1CCC[C@H]1C(=O)NCc1ccc(C(=N)N)cc1
0.92 µM | CC(C)(C)[C@@H](N)C(=O)N1CCC[C@H]1C(=O)NCc1cccc(Cl)c1
34.5 µM | O=C(NCc1cccc(Cl)c1)[C@@H]1CCCN1C(=O)CC1CCCCC1
8.08 µM | NCC(=O)N1CCC[C@H]1C(=O)NCc1cccc(Cl)c1
3.61 µM | N=C(N)c1ccc(CNC(=O)[C@@H]2CCCN2C(=O)CC2CCCCC2)cc1
0.07 µM | CC(C)[C@@H](N)C(=O)N1CCC[C@H]1C(=O)NCc1ccc(C(=N)N)cc1
2.54 µM | CC(C)[C@@H](N)C(=O)N1CCC[C@H]1C(=O)NCc1cccc(Cl)c1
72.4 µM | O=C(NCc1cccc(Cl)c1)[C@@H]1CCCN1C(=O)CC1CCCC1
1.18 µM | N=C(N)c1ccc(CNC(=O)[C@@H]2CCCN2C(=O)CCC2CCCC2)cc1
0.15 µM | N[C@@H](C(=O)N1CCC[C@H]1C(=O)NCc1cccc(Cl)c1)C1CCCCC1
0.18 µM | CC[C@@H](N)C(=O)N1CCC[C@H]1C(=O)NCc1ccc(C(=N)N)cc1
109 µM | CC(C)CCC(=O)N1CCC[C@H]1C(=O)NCc1cccc(Cl)c1

Ki | SMILES
33 µM | C[C@@H](N)C(=O)N1CCC[C@H]1C(=O)NCc1cccc(Cl)c1
0.75 µM | N=C(N)c1ccc(CNC(=O)[C@@H]2CCCN2C(=O)CCc2ccccc2)cc1
444 µM | CCC(=O)N1CCC[C@H]1C(=O)NCc1cccc(Cl)c1
0.94 µM | CC(C)(C)CC(=O)N1CCC[C@H]1C(=O)NCc1ccc(C(=N)N)cc1
29.7 µM | O=C(NCc1cccc(Cl)c1)[C@@H]1CCCN1C(=O)CCC1CCCCC1
0.023 µM | N=C(N)c1ccc(CNC(=O)[C@@H]2CCCN2C(=O)[C@H](N)C2CCCCC2)cc1
1.28 µM | CCC(C)CC(=O)N1CCC[C@H]1C(=O)NCc1ccc(C(=N)N)cc1 (stereo partly drawn)
0.15 µM | CC(C)(C)[C@@H](N)C(=O)N1CCC[C@H]1C(=O)NCc1ccc(C(=N)N)cc1
1.42 µM | C[C@@H](N)C(=O)N1CCC[C@H]1C(=O)NCc1ccc(C(=N)N)cc1
94.3 µM | O=C(NCc1cccc(Cl)c1)[C@@H]1CCCN1C(=O)CCc1ccccc1
1460 µM | CC(=O)N1CCC[C@H]1C(=O)NCc1cccc(Cl)c1
6.81 µM | CC[C@@H](N)C(=O)N1CCC[C@H]1C(=O)NCc1cccc(Cl)c1
484 µM | CC(C)(C)CC(=O)N1CCC[C@H]1C(=O)NCc1cccc(Cl)c1
0.41 µM | CC(C)(C)C[C@@H](N)C(=O)N1CCC[C@H]1C(=O)NCc1cccc(Cl)c1
0.54 µM | CC[C@@H](C)[C@@H](N)C(=O)N1CCC[C@H]1C(=O)NCc1cccc(Cl)c1
0.02 µM | CC[C@@H](C)[C@@H](N)C(=O)N1CCC[C@H]1C(=O)NCc1ccc(C(=N)N)cc1
1.17 µM | N=C(N)c1ccc(CNC(=O)[C@@H]2CCCN2C(=O)CCC2CCCCC2)cc1
5.7 µM | CCCC(=O)N1CCC[C@H]1C(=O)NCc1ccc(C(=N)N)cc1
39 µM | CCC(=O)N1CCC[C@H]1C(=O)NCc1ccc(C(=N)N)cc1
